Laboratory results: patent US20160193240A1, “Ulmoside-A: Useful For Prevention Or Cure Of Metabolic Diseases” (COUNCIL OF SCIENTIFIC & INDUSTRIAL RESEARCH, priority 2013, published 2016)

How the values were obtained:
rats = settings: cited from earlier work
db/db mice = experiment: Body weight of db/db mice; format: in vivo, mouse; settings: 5 mg/kg ULMA for 15 d
Method: 8 week old db/db mice were treated with vehicle (V; 1% gum acacia) or with 5 mg/kg ULMA for 15 days and the body weights were measured on 0th, 7th, 10th, or 15th day of treatment and plotted. ** p<0.01, n=6.
8 week old female db/db mice (n=6) weighing 40-50 g were divided into 2 groups and maintained as above. Control groups received vehicle (1% gum acacia) and ULMA groups received 5 mg/kg bw ULMA in 1% gum acacia for […]. Body weight and blood glucose were measured at the beginning and end of the studies.

AdipoR2 = molecular target: T1, AdipoR2 (Homo sapiens, UniProt Q86V24); experiment: Radio-ligand saturation binding assay with 125I-ULMA, CHO cells transfected with AdipoR2
T1 construct: expressed in transfected cells; host or cells: Chinese Hamster Ovary cells (ECACC 85050302), transient transfection with Lipofectamine LTX
T1 sequence (Q86V24 1-386): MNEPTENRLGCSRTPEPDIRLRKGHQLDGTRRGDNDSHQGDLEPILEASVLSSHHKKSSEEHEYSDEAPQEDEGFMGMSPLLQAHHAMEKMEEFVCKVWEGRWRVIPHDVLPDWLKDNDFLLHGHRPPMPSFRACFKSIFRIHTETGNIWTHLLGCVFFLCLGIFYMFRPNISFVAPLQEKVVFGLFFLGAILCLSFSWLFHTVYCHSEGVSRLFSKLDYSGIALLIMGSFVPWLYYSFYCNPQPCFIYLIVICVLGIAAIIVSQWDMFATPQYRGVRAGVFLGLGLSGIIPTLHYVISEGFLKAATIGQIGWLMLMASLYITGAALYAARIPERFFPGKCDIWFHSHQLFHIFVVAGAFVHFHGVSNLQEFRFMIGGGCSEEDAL
Method: D. CHO cells transfected with empty vector or AdipoR1 or R2 expression vectors were incubated with various concentrations of ^125I-ULMA for 2 h at 4° C. Following washes, cells were lysed and count per minute was analyzed in a gamma counter. 200 fold molar excess of unlabeled ULMA was used for each concentration of radiolabeled ULMA for determining nonspecific activity. Count per minutes were normalized with total cellular protein content followed by further normalization with non-specific activity and plotted. Data is mean±SEM from three experiments performed in triplicates.
Further validation of AdipoR-ULMA interaction and its quantitation was done using a radio-ligand saturation binding assay using ^125I-ULMA. ULMA was first radiolabeled using chloramines-T method. 10 μl of ^125I (20 MBq; BARC, Mumbai, India) was added to 100 μg GTDF in 5% acetic acid/methanol, then chloramine-T (Sigma, 4 μg in MilliQ H2O) was added, and the mixture was allowed to react at room temperature (24° C.) for 5 min. […] was used for protein estimation using standard Bradford assay and rest of the lysate was used for measuring radioactivity in a gamma-counter (Cole Palmer). The count per minute was normalized with protein concentration and was further normalized with non specific binding, which was determined for every concentration of ^125I-ULMA, using 200 fold molar excess of unlabeled ULMA.

O=C1c2c(cc(O)c([C@@H]3O[C@H](CO)[C@@H](O)[C@H](O)[C@H]3O)c2O)O[C@@H](c2ccc(O)c(O)c2)[C@@H]1O [ULMA, (2S,3S)-(+)-3′,4′,5,7-tetrahydroxydihydroflavonol-6-C-β-D-glucopyranoside]
effect on ovariectomy-induced osteoporosis (rats): mitigated ovariectomy-induced osteoporosis
body weight compared to vehicle treated control mice (db/db mice): significantly reduced body weight
maximum binding (BMAX) (AdipoR2): 3950 fmol/mg of protein
Kd (AdipoR2; 2 hours, ice cold, read-out: dissociation constant (Kd)): 0.326 µM
